Measurements: patent US11254640B2, “N-substituted indoles and other heterocycles for treating brain disorders” (The Regents of the University of California, priority 2019, dated 2022)

Experiments:
Type in all cases: cell-based
5HT2A sensor [1] = assay: 5HT2A sensor assay, agonist mode (sLight1.3s HEK293T stable line); details: percent relative to 5-HT at 100 uM; for 5HT2A Agonist mean @ 100 nM (%): 100 nM compound; for 5HT2A Agonist mean @ 10 μM (%): 10 μM compound; for 5HT2A Agonist mean @ 100 μM (%): 100 μM compound
How it was run: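 Fluorescence change, dFF=(Fsat−Fapo)/Fapo, was taken from membrane images (460 nm excitation) before and after compound addition and scaled as % activation, with the DMSO mean as 0 and the 5HT mean as 100. The cells were sLight1.3s HEK293T in HBSS. Final compound levels were 100 μM, 10 μM and 100 nM in 0.1% DMSO, in triplicate.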

5HT2A sensor [2] = assay: 5HT2A sensor assay, antagonist mode (sLight1.3s HEK293T stable line); details: relative to 5-HT at 100 nM; for 5HT2A Antagonist mean @ 100 nM (%): 100 nM compound; for 5HT2A Antagonist mean @ 10 μM (%): 10 μM compound; for 5HT2A Antagonist mean @ 100 μM (%): 100 μM compound
How it was run: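 Inactivation score is computed from membrane dFF as (dFF(compound+5HT)−dFF(5HT))/dFF(5HT), with HBSS-only fluorescence as Fapo. Final concentrations: 5-HT 100 nM added first, then compound at 100 nM, 10 μM or 100 μM in 0.1% DMSO. Triplicates; FITC imaging, 5 fields per well.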

5HT2A = target: T1, 5HT2A (Homo sapiens, UniProt P28223); assay: Calcium flux assay (Calcium secondary messenger pathway); details: agonist mode
T1 construct: expressed in transfected cells
T1 sequence (P28223 whole entry): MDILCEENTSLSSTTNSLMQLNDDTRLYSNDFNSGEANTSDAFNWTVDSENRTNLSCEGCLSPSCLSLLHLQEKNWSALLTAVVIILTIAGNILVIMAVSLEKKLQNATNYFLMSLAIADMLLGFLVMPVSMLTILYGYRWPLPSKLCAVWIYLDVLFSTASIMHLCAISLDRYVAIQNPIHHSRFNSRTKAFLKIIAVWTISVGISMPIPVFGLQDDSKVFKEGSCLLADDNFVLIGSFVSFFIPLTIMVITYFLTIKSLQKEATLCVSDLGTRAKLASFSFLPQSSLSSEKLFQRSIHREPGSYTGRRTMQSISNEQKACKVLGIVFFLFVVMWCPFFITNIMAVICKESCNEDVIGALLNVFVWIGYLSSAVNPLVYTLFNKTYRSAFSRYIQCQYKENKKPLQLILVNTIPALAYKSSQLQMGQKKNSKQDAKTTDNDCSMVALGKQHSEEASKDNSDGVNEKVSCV
How it was run: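 Gq-coupled calcium mobilization in cells stably expressing 5HT2A, loaded 30–60 min at 37 °C with calcium-sensitive dye in HBSS/20 mM Hepes with 2.5 mM probenecid. Compound added 5 s into a 2-min FLIPR Tetra fluorescence read at room temperature; % activity relative to vehicle and maximal control-ligand RFU.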

| SMILES | 5HT2A Agonist mean @ 100 nM (%) (5HT2A sensor [1]) | 5HT2A Agonist mean @ 10 μM (%) (5HT2A sensor [1]) | 5HT2A Agonist mean @ 100 μM (%) (5HT2A sensor [1]) | 5HT2A Antagonist mean @ 100 nM (%) (5HT2A sensor [2]) | 5HT2A Antagonist mean @ 10 μM (%) (5HT2A sensor [2]) | 5HT2A Antagonist mean @ 100 μM (%) (5HT2A sensor [2]) | EC50 (5HT2A) [µM] |
| --- | --- | --- | --- | --- | --- | --- | --- |
| COc1cccc2c1ccn2CCN(C)C.O=C(O)/C=C/C(=O)O [Example 3, 2-(4-methoxy-1H-indol-1-yl)-N,N-dimethylethan-1-amine] | B (does not activate 5HT2A sensor assay in agonist mode) | B (does not activate 5HT2A sensor assay in agonist mode) | B (does not activate 5HT2A sensor assay in agonist mode) | A (inhibits 5HT response by >100%) | A (inhibits 5HT response by >100%) | A (inhibits 5HT response by >100%) | > 10 |
| COc1ccc2c(ccn2CCN(C)C)c1.O=C(O)/C=C/C(=O)O [Example 4, 2-(5-methoxy-1H-indol-1-yl)-N,N-dimethylethan-1-amine] | B (does not activate 5HT2A sensor assay in agonist mode) | B (does not activate 5HT2A sensor assay in agonist mode) | A (activates 5HT2A sensor assay in agonist mode) | C (inhibits 5HT response by <75%) | B (inhibits 5HT response by 75% to 100%) | B (inhibits 5HT response by 75% to 100%) | > 10 |
| COc1ccc2ccn(CCN(C)C)c2c1 [Example 5, 2-(6-methoxy-1H-indol-1-yl)-N,N-dimethylethan-1-amine] | B (does not activate 5HT2A sensor assay in agonist mode) | B (does not activate 5HT2A sensor assay in agonist mode) | A (activates 5HT2A sensor assay in agonist mode) | B (inhibits 5HT response by 75% to 100%) | B (inhibits 5HT response by 75% to 100%) | B (inhibits 5HT response by 75% to 100%) | < 10 |
| COc1cccc2ccn(CCN(C)C)c12.O=C(O)/C=C/C(=O)O [Example 6, 2-(7-methoxy-1H-indol-1-yl)-N,N-dimethylethan-1-amine] | B (does not activate 5HT2A sensor assay in agonist mode) | B (does not activate 5HT2A sensor assay in agonist mode) | B (does not activate 5HT2A sensor assay in agonist mode) | A (inhibits 5HT response by >100%) | A (inhibits 5HT response by >100%) | A (inhibits 5HT response by >100%) | < 10 |
| COc1ccc2c(ccn2C[C@@H](C)N(C)C)c1 [Example 59, (R)-1-(5-methoxy-1H-indol-1-yl)-N,N-dimethylpropan-2-amine] | B (does not activate 5HT2A sensor assay in agonist mode) | B (does not activate 5HT2A sensor assay in agonist mode) | B (does not activate 5HT2A sensor assay in agonist mode) | B (inhibits 5HT response by 75% to 100%) | A (inhibits 5HT response by >100%) | A (inhibits 5HT response by >100%) | > 10 |
| C[C@H](Cn1ccc2cc(F)ccc21)N(C)C [Example 60, (R)-1-(5-fluoro-1H-indol-1-yl)-N,N-dimethylpropan-2-amine] | B (does not activate 5HT2A sensor assay in agonist mode) | B (does not activate 5HT2A sensor assay in agonist mode) | A (activates 5HT2A sensor assay in agonist mode) | C (inhibits 5HT response by <75%) | B (inhibits 5HT response by 75% to 100%) | B (inhibits 5HT response by 75% to 100%) | > 10 |
